Test results reported in PMC9138090, “Study on the Neuroprotective, Radical-Scavenging and MAO-B Inhibiting Properties of New Benzimidazole Arylhydrazones as Potential Multi-Target Drugs for the Treatment of Parkinson’s Disease” (Antioxidants, 2022).
Entries after “also recorded” stand apart in the source; their conditions may differ.

Assays:
[1] = system: rat brain synaptosomes; assay: Synaptosomal viability (MTT), toxicity evaluation; format: cell-based; settings: concentrations < 250 µM (1 to 250 µM tested)
Experimental: (§1) Synaptosomes were prepared from brains of adult male Wistar rats. The brains were homogenized in 10 volume of cold buffer 1, containing 5 mM HEPES and 0.32 M sucrose (pH = 7.4). The brain homogenate was centrifuged twice at 1000× g for 5 min at 4 °C. The supernatant was collected and centrifuged 3 times at 10,000× g for 20 min at 4 °C. The pellet was re-suspended in ice-cold buffer 1. The synaptosomes were isolated by using Percoll reagent to prepare the gradient. Synaptosomes were re-suspended and incubated in buffer 2, containing 290 mM NaCl, 0.95 mM MgCl2 × 6H2O, 10 mM KCl, 2.4 mM CaCl2 × H2O, 2.1 mM NaH2PO4, 44 mM HEPES, and 13 mM D-glucose. Incubations were performed in a 5% CO2 + 95% O2 atmosphere. The content of synaptosomal protein was determined according to the method of Lowry et al. using bovine serum albumin as a standard.
Synaptosomal viability was measured by (3-(4,5)-dimethylthiazol-2-yl)-2,5-diphenyl tetrazolium bromide)-test, described by Mungarro-Menchaca et al. The synaptosomes were incubated with the compounds and then treated with (3-(4,5)-dimethylthiazol-2-yl)-2,5-diphenyl tetrazolium bromide) solution (0.5 mg/mL) for 1 h at 37 °C. After incubation they were centrifuged at 15,000× g for 1 min. The formed formazan crystals were dissolved in DMSO (Dimethyl sulfoxide). The extinction was measured spectrophotometrically at λ = 580 nm.
The low toxicity and substantial neuroprotective properties shown by some of the potential drug candidates in human neuroblastoma SH-SY5Y cells directed the experimental work to be elaborated on a different cellular in vitro model using freshly isolated rat brain synaptosomes for the evaluation of the protective effects and toxicity of selected promising compounds [56]. The rat brain synaptosomes represent a terminal part of the axons and contain synaptic vesicles, mitochondria, lysosomes, parts of the cell membrane, neurotransmitters, which diffuse across the synaptic cleft. Besides the presynaptic membrane, a part of postsynaptic membrane with the postsynaptic density is often attached to the nerve ending. In their experiments, Student and Edwards examined the subcellular localization of the A and B forms of MAO in rat brain. […] The authors conclude from the data that MAO-B activity is, indeed, associated with synaptosomes and may be non-uniformly located among different populations of synaptic endings. The functional-metabolic status of the synaptosomes was evaluated by measuring the synaptosomal viability (MTT assay) and the levels of reduced gluthathione (GSH) (Figure 2). […] At the highest used concentration (250 µM) a relative decrease in the synaptosomal viability and the levels of reduced glutathione was observed.

[2] = system: rat brain synaptosomes; assay: GSH level in isolated synaptosomes, toxicity evaluation; format: cell-based; settings: concentrations < 250 µM (1 to 250 µM tested)
Experimental: as §1
Following treatment with the tested compounds, the glutathione levels were determined using Ellman reagent (DTNB), which forms color complexes with the SH group at pH = 8, with maximum absorbance at 412 nm. The synaptosomes were centrifuged at 500× g for 1 min and the sediment was used to measure GSH level. The sediment was precipitated with 5% TCA, then centrifuged for 10 min at 4000× g and the GSH level in the supernatant was measured using DTNB spectrophotometrically at 412 nm. The biochemical parameters were determined by spectrophotometric methods using a Spectro UV-VIS Split spectrophotometer (LaboMed.Inc, Los Angeles, CA, USA).
The low toxicity and substantial neuroprotective properties shown by some of the potential drug candidates in human neuroblastoma SH-SY5Y cells directed the experimental work to be elaborated on a different cellular in vitro model using freshly isolated rat brain synaptosomes for the evaluation of the protective effects and toxicity of selected promising compounds [56]. The rat brain synaptosomes represent a terminal part of the axons and contain synaptic vesicles, mitochondria, lysosomes, parts of the cell membrane, neurotransmitters, which diffuse across the synaptic cleft. Besides the presynaptic membrane, a part of postsynaptic membrane with the postsynaptic density is often attached to the nerve ending. In their experiments, Student and Edwards examined the subcellular localization of the A and B forms of MAO in rat brain. […] The authors conclude from the data that MAO-B activity is, indeed, associated with synaptosomes and may be non-uniformly located among different populations of synaptic endings. The functional-metabolic status of the synaptosomes was evaluated by measuring the synaptosomal viability (MTT assay) and the levels of reduced gluthathione (GSH) (Figure 2). […]

[3] = biological target: T1, human recombinant MAO-B (hMAO-B) enzyme (Homo sapiens, UniProt P27338); assay: hMAO-B activity, Amplex UltraRed fluorometric method; format: biochemical; settings: 1 µM
T1 construct: purchased Invitrogen, USA
T1 sequence (P27338 1-520): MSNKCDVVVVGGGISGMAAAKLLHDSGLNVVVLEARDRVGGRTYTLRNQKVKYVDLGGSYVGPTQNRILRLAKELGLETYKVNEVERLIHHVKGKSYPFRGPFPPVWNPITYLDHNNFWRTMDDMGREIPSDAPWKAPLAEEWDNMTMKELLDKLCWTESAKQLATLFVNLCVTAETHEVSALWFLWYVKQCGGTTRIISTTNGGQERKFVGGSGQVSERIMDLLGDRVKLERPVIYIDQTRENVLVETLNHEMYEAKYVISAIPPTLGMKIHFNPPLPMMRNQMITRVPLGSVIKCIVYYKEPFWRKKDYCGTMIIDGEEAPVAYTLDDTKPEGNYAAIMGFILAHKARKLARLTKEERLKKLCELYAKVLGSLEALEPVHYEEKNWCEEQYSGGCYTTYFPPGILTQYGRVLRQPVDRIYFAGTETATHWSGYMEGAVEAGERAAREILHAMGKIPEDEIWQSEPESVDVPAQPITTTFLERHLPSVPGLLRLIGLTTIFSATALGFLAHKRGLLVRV
Experimental: The effects of the test compounds on human recombinant MAO-B (hMAO-B) enzyme were studied by the Amplex UltraRed reagent (Sigma-Aldrich Chemie GmbH) fluorometric method with small modifications. The working solutions of the compounds, reagents, hMAO-B, and reaction buffers were prepared according to the producer’s instructions. The tyramine hydrochloride was used as a substrate. The reaction mixture contained a stock solution of Amplex Red (10 mM in dimethyl sulfoxide), the reaction buffer (0.05 M sodium phosphate) at pH 7.4, and the storage solution of horseradish peroxidase (10 U/mL). There were pure MAO-B working solutions in the reaction buffer and MAO-B working solution containing hydrogen peroxide as controls. The final concentration of the test compounds in the well was 1 μM. The compounds together with hMAO-B were embedded in a 96-well plate (8 wells for each compound), and then the plate was incubated for 30 min (dark, at 37 °C). Thereafter, the reaction was initiated by 50 μL Mix Solution: Amplex®Red reagent, horseradish peroxidase, and tyramine as an enzyme substrate in the reaction buffer. The fluorescence was measured every 30 min at 0, 30, 60, 90, 120, and 150 min), in dark, while shaking the reaction mixture at constant temperature of 37 °C. The fluorimetric measurements were assessed using a Synergy 2 Microplate Reader.
Monoamine oxidase B catalyzes dopamine metabolism and oxidation leading to the formation of reactive oxygen species and reactive quinones, which provoke dopamine neurotoxicity and neurodegeneration. In the next experiments, the compounds showing the best safety profile and the most promising neuroprotective activity (3d, 3e, 3h, 3i, 3m, 3n, 3p) were evaluated for their potential inhibitory activity on hMAOB. Selegiline and rasagiline as potent MAO-B inhibitors were used as standard compounds for comparison.

Structure (SMILES) | effect on rat brain synaptosomes viability [1] | effect on level of GSH in synaptosomes [2] | inhibitory effect on hMAOB activity (in words) [3] | melting point
O=C(CCn1c(=S)n(CCC(=O)NN=Cc2ccccc2O)c2ccccc21)NN=Cc1ccccc1O [3e, 3,3′-(2-Thioxo-1H-benzo[d]imidazole-1,3(2H)-diyl)bis(N′-(2-hydroxybenzylidene)propanehydrazide)] | did not significantly reduce | did not change | statistically significant MAO-B inhibitory effects | 272 to 273 °C
O=C(CCn1c(=S)n(CCC(=O)NN=Cc2cccc(O)c2O)c2ccccc21)NN=Cc1cccc(O)c1O [3h, 3,3′-(2-Thioxo-1H-benzo[d]imidazole-1,3(2H)-diyl)bis(N′-(2,3-dihydroxybenzylidene)propanehydrazide)] | did not significantly reduce | did not significantly reduce; also recorded: did not change | statistically significant MAO-B inhibitory effects; also recorded: most potent with an hMAO-B inhibitory activity similar to selegiline and rasagiline | 246 to 248 °C
O=C(CCn1c(=S)n(CCC(=O)NN=Cc2ccc(O)cc2O)c2ccccc21)NN=Cc1ccc(O)cc1O [3i, 3,3′-(2-Thioxo-1H-benzo[d]imidazole-1,3(2H)-diyl)bis(N′-(2,4-dihydroxybenzylidene)propanehydrazide)] | did not significantly reduce | did not significantly reduce; also recorded: did not change | statistically significant MAO-B inhibitory effects | 254 to 256 °C
COc1ccc(C=NNC(=O)CCn2c(=S)n(CCC(=O)NN=Cc3ccc(OC)cc3O)c3ccccc32)c(O)c1 [3m, 3,3′-(2-Thioxo-1H-benzo[d]imidazole-1,3(2H)-diyl)bis(N′-(2-hydroxy-4-methoxybenzylidene)propanehydrazide)] | did not significantly reduce | did not change | statistically significant MAO-B inhibitory effects | 247 to 249 °C
